Results on 12 compounds are retold here after patent US5221752A, “α-keto amide derivatives” (Nippon Kayaku Kabushiki Kaisha, priority 1990, dated 1993).

*1 amine or outer side, *2 acyl side, *3 side chain or, on linkers, in order; H or OH if unused. Where a SMILES comes first, the peptide text is derived from it. [ ]: non-standard residue; d: D form. The star is where a group is joined. ξ: configuration not given here. X1 = O=C(C(=O)[*:2])C1CCCN1[*:1]; Cbz = O=C(OCc1ccccc1)*; ξV = CC(C)C(N)C(=O)O; OBn = c1ccc(CO*)cc1

For one test, the target named is T1, prolyl endopeptidase (Sus scrofa, UniProt P23687).
T1 construct: prolyl endopeptidase obtained from porcine kidneys used as the enzyme; from tissue; host or cells: porcine kidneys
T1 sequence (P23687 whole entry): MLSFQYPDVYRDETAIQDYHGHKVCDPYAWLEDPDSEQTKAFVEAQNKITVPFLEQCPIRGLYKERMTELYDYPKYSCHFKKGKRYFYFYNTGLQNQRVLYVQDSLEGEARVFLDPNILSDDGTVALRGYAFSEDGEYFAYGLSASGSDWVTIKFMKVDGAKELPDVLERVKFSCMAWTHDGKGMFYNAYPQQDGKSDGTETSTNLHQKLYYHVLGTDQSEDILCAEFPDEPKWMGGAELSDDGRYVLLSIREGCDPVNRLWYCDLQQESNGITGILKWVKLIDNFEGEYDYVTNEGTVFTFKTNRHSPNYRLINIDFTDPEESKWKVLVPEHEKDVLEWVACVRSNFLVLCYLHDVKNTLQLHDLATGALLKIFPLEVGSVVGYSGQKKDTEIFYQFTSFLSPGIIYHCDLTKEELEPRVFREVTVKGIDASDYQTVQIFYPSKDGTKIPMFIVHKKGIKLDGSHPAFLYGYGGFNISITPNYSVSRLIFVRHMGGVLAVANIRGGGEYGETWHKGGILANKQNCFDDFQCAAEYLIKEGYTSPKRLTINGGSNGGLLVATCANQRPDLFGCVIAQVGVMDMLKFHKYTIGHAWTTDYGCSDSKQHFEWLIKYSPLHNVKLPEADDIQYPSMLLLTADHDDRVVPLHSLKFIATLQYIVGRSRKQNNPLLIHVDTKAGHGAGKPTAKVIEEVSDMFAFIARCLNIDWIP
Description: Enzyme inhibiting activity (prolyl endopeptidase; substrate benzyloxycarbonylglycylproline β-naphthylamide). In kind it is biochemical, porcine.
Details: not given
Here is the method:
Experiments were conducted to evaluate the enzyme inhibiting activity of the compounds of the present invention by using prolyl endopeptidase as the enzyme model. They are given in the following Test Examples.
Method of Assaying Enzyme Inhibiting Activity
Benzyloxycarbonylglycylproline β-naphthylamide (0.1 mM) used as the substrate was reacted with prolyl endopeptidase obtained from porcine kidneys used as the enzyme in a 0.025 M tris(hydroxymethyl)methanamine hydrochloric acid solution (pH: 7.5) at 37° C. reaction mixture for 30 min and then the absorbance of the product at 525 nm was measured.
`CC(C)C[C@@H](NC(=O)C(=O)C1CCCN1C(=O)C(NC(=O)C(NC(=O)OCc1ccccc1)C(C)C)C(C)C)C(=O)NC(C(=O)OCc1ccccc1)C(C)C` (stereo partly drawn) [Example 7, N-Benzyloxycarbonylvalylvalyl-[2-oxo-2-(pyrrolidin-2-yl)acetyl]-D-leucylvaline benzyl ester] (Cbz-[ξV][ξV][X1][dL][ξV]-OBn) had an IC50 of 9 nM.

`CC(C)C[C@@H](NC(=O)C(=O)C1CCCN1C(=O)C(NC(=O)C(N)C(C)C)C(C)C)C(=O)NC(C(=O)O)C(C)C` (stereo partly drawn) [Example 8, Valylvalyl-[2 oxo 2-(pyrrolidin-2-yl)acetyl]-D-leucylvaline] (H-[ξV][ξV][X1][dL][ξV]-OH): the IC50 was 19.9 nM. This IC50 is about 2.2-fold higher than that of the compound before.

Regarding `CC(C)C[C@@H](NC(=O)C(=O)C1CCCN1C(=O)CC(C)(C)C)C(=O)OC(C)(C)C` (stereo partly drawn) [Example 14, [2-Oxo-2-(N-(3,3-dimethylbutanoyl)pyrrolidin-2-yl)-acetyl]-D-leucine t-butyl ester], half-maximal inhibition (IC50) was put at 21.9 nM.

Compound `CC(C)C[C@@H](NC(=O)C(=O)C1CCCN1C(=O)OCc1ccccc1)C(=O)OC(C)(C)C` (stereo partly drawn) [Example 15, [2-Oxo-2-(N-benzyloxycarbonylpyrrolidin-2-yl)acetyl]-D-leucine t-butyl ester] gave a concentration for half-maximal inhibition (IC50) of 103 nM. This IC50 is about 4.7-fold higher than that of the compound before.

The compound `CC(C)C[C@@H](NC(=O)C(=O)C1CCCN1C(=O)C(Cc1ccccc1)NC(=O)OCc1ccccc1)C(=O)OC(C)(C)C` (stereo partly drawn) [Example 16, N-Benzyloxycarbonylphenylalanyl-[2-oxo-2-(pyrrolidin-2-yl)acetyl]-D-leucin t-butyl ester] gave an IC50 of 3.37 nM.

`CC(C)C[C@@H](NC(=O)C(=O)C1CCCN1C(=O)C(Cc1ccccc1)NC(=O)OCc1ccccc1)C(=O)O` (stereo partly drawn) [Example 17, N-Benzyloxycarbonylphenylalanyl-[2-oxo-2-(pyrrolidin-2-yl)acetyl)-D-leucine] had an IC50 of 2.42 nM.

On to `CC(C)C[C@@H](NC(=O)C(=O)C1CCCN1C(=O)C(Cc1ccccc1)NC(=O)OCc1ccccc1)C(=O)NC(C)(C)C` (stereo partly drawn) [Example 19, N-Benzyloxycarbonylphenylalanyl-[2-oxo-2-(pyrrolidin-2-yl)acetyl]-D-leucinet-butylamide], for which 2.36 nM corresponded to half-maximal inhibition (IC50).

Turning to `CC(C)C[C@@H](NC(=O)C(=O)C1CCCN1C(=O)C1CCCN1C(=O)OCc1ccccc1)C(=O)NC(C(=O)OCc1ccccc1)C(C)C` (stereo partly drawn) [Example 20, N-Benzyloxycarbonylprolyl-[2-oxo-2-(pyrrolidin-2-yl)acetyl]-D-leucylvaline benzyl ester], the midpoint of inhibition, the IC50, lay at 3.25 nM.

In turn, `CC(C)(C)OC(=O)CNC(=O)C(=O)C1CCCN1C(=O)C(Cc1ccccc1)NC(=O)OCc1ccccc1` (stereo not drawn) [Example 21, N-Benzyloxycarbonylphenylalanyl-[2-oxo-2-(pyrrolidin-2-yl)acetyl]-glycine t-butyl ester] gave an IC50 of 1.49 nM.

Regarding `O=C(O)CNC(=O)C(=O)C1CCCN1C(=O)C(Cc1ccccc1)NC(=O)OCc1ccccc1` (stereo not drawn) [Example 22, N-Benzyloxycarbonylphenylalanyl-[2-oxo-2-(pyrrolidin-2-yl)acetyl]-glycine], the IC50 was 2.28 nM.

As for `CC(C)CC(NC(=O)C(=O)C1CCCN1C(=O)C(Cc1ccccc1)NC(=O)OCc1ccccc1)C(=O)OC(C)(C)C` (stereo not drawn) [Example 23, N-benzyloxycarbonylphenylalanyl-[2-oxo-2-(pyrrolidin-2-yl)acetyl]-leucine t-butyl ester], the IC50 is 3.03 nM.

The test is the same for the next values; noted with them: prolyl endopeptidase from porcine kidneys; substrate 0.1 mM; pH 7.5; 37° C.; 30 min; absorbance 525 nm.
As to “N-Benzyloxycarbonylphenylalanyl-[2 hydroxy-2-(pyrrolidin-2-yl)acetyl]-D-leucylvaline benzyl ester [Example 9]”, the “IC50 (concentration necessary for 50% inhibition)” value amounted to 2.4 ng/mL.

One may read the IC50 as the midpoint of a concentration-inhibition curve. Lower therefore signals higher potency.
